Reference: patent US20170285002A1, “METHOD FOR RECONSTITUTING TUMOR WITH MICROENVIRONMENT” (Public University Corporation Yokohama City University, priority 2016, published 2017)
Each block holds one molecule with its values, some of them ahead of it.

Assays:
[1] = system: CFPAC-1-derived cancer organoid xenograft; experiment: Tumor size after discontinuation of gemcitabine administration (recurrence); assay type: in vivo; details: 30 mg/kg for 30 days
Experimental: Whether a xenograft reconstituted from a cancer organoid could reproduce the recurrence of pancreatic cancer was studied. […] The right diagrams show a macro photograph of the xenograft in each period. […] After cancer organoid (CFPAC-1-derived) transplantation, gemcitabine was administered (30 mg/kg) for 30 days. Then, the gemcitabine administration was discontinued.

[2] = system: luciferase gene-transfected human pancreatic cancer cell line; experiment: In vitro drug sensitivity of pancreatic cancer organoid versus plane-cultured cells (luciferase activity); assay type: cell-based
Experimental: In each graph, the ordinate depicts the amount of luciferase activity of the pancreatic cancer cells, and the abscissa depicts an anti-cancer drug (gemcitabine, nab-paclitaxel, or 5-FU) concentration in a medium. […] Among the pancreatic cancer organoids, cancer organoids with rich-stroma show lower sensitivity to anticancer drugs.
(§1) Each pre-existing human pancreatic cancer cell line was inoculated at 5×10^3 cells/well on a 96-well plate, and gemcitabine (10^−12 to 10^−3 M) was added thereto 24 hours later. Nuclear staining was performed 72 hours after the gemcitabine addition. A cell number was measured using IN Cell Analyzer 2000, and an IC50 value was calculated. In order to specifically detect cancer cells within an organoid and calculate a cancer cell number, luciferase gene-transfected cancer cells were established and used in analysis. A cancer organoid was formed from the luciferase gene-transfected cancer cells, and luminescence was measured in the presence of a luminescent substrate (e.g., Luciferase Assay System from Promega Corp.) to evaluate the number of cancer cells present.
On the other hand, for the large-scale preparation of pancreatic cancer cell organoids having a uniform size, human pancreatic cancer cells, HUVECs, and hMSCs were cocultured using a three-dimensional culture vessel (e.g., ELPLASIA plate from Kuraray Co., Ltd.) to reconstitute a human pancreatic cancer cell line organoid. The pancreatic cancer cells of each line were inoculated at 1×10^4 cells on each well of a 96-well plate which was also inoculated with arbitrary numbers of HUVECs and hMSCs to reconstitute a cancer organoid. The mixing ratio of the cancer cells, HUVECs, and hMSCs was set to 10:0:0, 10:7:1, 10:7:20, 10:7:0, or 10:0:20.
In order to evaluate the drug sensitivity of cancer cells with high accuracy, an approach for quantitatively evaluating only the number of cancer cells within a cancer organoid was studied (FIG. 14). Luciferase gene-transfected cancer cells (CFPAC-1, PANC-1, or CAPAN-2; typically, CFPAC-1) were established, and a cancer organoid was reconstituted. Then, a luminescent substrate was added thereto, and the luminescence intensity of each well was measured using a luminescence plate reader. The luciferase gene-transfected cancer cells were inoculated at various cell numbers onto a multi-well plate, followed by luciferase assay. As a result, the luminescence intensity was confirmed to be proportional to the cell number (FIG. 15). […]
A pancreatic cancer organoid was reconstituted from luciferase gene-transfected pancreatic cancer cells and stromal cells and evaluated for its sensitivity for a pancreatic cancer therapeutic (anti-cancer drug) (FIG. 17). […]

[3] = system: primary pancreatic cancer organoid; experiment: Drug sensitivity of primary human pancreatic cancer organoid versus patient prognosis (luciferase activity); assay type: cell-based; details: organoid from patient having postoperative recurrence; 72 hours
Experimental: Pancreatic cancer cells were separated from a surgically resected preparation of each pancreatic cancer patient and expanded culture was performed by the cyst culture method to obtain primary human pancreatic cancer cells. […] The obtained primary human pancreatic cancer cells were three-dimensionally cocultured with stromal cells (vascular endothelial cells (HUVECs, etc.) and mesenchymal cells (hMSCs, etc.)) to reconstitute a primary pancreatic cancer organoid. Its drug sensitivity was evaluated. The mixing ratio of these cells at the time of primary pancreatic cancer organoid preparation was 10:7:20. The number of specimens was 2. Primary pancreatic cancer cells were separated from a surgically resected specimen of each pancreatic cancer patient (with or without postoperative recurrence), subjected to expanded culture, and then transfected with luciferase gene. Then, these cancer cells were three-dimensionally cocultured with stromal cells to reconstitute a primary pancreatic cancer organoid. The reconstituted human pancreatic cancer organoid was cultured for 72 hours in the presence of gemcitabine at respective concentrations, followed by luciferase activity measurement.

SW1990 = experiment: In vitro drug sensitivity of pre-existing human pancreatic cancer cell line (surviving cell number, IC50); assay type: cell-based; details: cells surviving 72 hours after addition
Experimental: (§2) 8000 cells of human pancreatic cancer cell line were seeded in each well of a 96-well plate, and gemcitabine was added at 24 hours. At 72 hours, the number of viable cells was measured and summarized in a graph. The pancreatic cancer cells of each line were subcutaneously transplanted to NOD/Scid mice. Gemcitabine was intraperitoneally administered at 100 mg/kg from the point in time when the tumor volume reached 100 mm^3. Change in tumor size after the gemcitabine administration was evaluated. The discrepancy between the in vitro anti-cancer drug sensitivity and the in vivo anti-cancer drug sensitivity was confirmed.
as §1
(§3) The in vitro drug sensitivity of a pre-existing human pancreatic cancer cell line CFPAC-1, PANC-1, or SW1990 was evaluated. 10^−12 to 10^−3M GEM was added to the cells cultured for 24 hours, and IC50 was calculated from the number of cells surviving 72 hours after the addition. As a result, IC50 of CFPAC-1, PANC-1, or SW1990 was 0.03 μM, 0.7 μM, or 0.2 μM, respectively (upper panels of FIG. 1). On the other hand, the cancer cells were subcutaneously transplanted to NOD/Scid mice, and the xenograft formed was evaluated for its in vivo drug sensitivity by the administration of GEM at 100 mg/kg.

CFPAC-1 = experiment: as above; assay type: cell-based; details: cells surviving 72 hours after addition
Experimental: as §2, §1, §3

PANC-1 = experiment: as above; assay type: cell-based; details: cells surviving 72 hours after addition
Experimental: as §2, §1, §3

[4] = system: EGFP gene-transfected cancer cells (typically, CFPAC-1) organoid; experiment: Residual cells in cancer organoid cultured with anti-cancer drug; assay type: cell-based, human; details: 1 uM, 72 hours
Experimental: Residual cancer cells expressing GFP and mesenchymal cells expressing αSMA are observed even after anti-cancer drug (gemcitabine) administration. Increase in positive ratio of a cancer stem cell marker Sox9 was confirmed in the residual cancer cells. The properties of cancer cells remaining after anti-cancer drug addition and stromal cells within a cancer organoid were evaluated. EGFP gene-transfected cancer cells (typically, CFPAC-1) were established, and a cancer organoid was reconstituted (the cancer cell:HUVEC:hMSC ratio is, for example, 10:7:10 to 10:7:20). Then, the cancer organoid was cultured for 72 hours in a medium containing 1 uM gemcitabine.

[5] = system: primary pancreatic cancer organoid xenograft; experiment: In vivo drug sensitivity of primary human pancreatic cancer organoid xenograft (tumor size); parameters: species or system immunodeficient mice; details: primary organoid transplantation group versus cyst transplantation group; once every three days
Experimental: FIG. 28 A primary cancer organoid was prepared from a primary cancer cell line, and a xenograft was reconstituted in immunodeficient mice in vivo. […] A primary pancreatic cancer organoid (pancreatic cancer cells: 2×10^5 cells) was reconstituted in vitro and then transplanted to immunodeficient mice. […] Gemcitabine was administered thereto once every three days from the point in time when a xenograft reached 100 mm^3.

PANC-1 xenograft = experiment: In vivo drug sensitivity of subcutaneous cell line xenograft; parameters: species or system NOD/Scid mice; details: 100 mg/kg intraperitoneal
Experimental: as §2, with “evaluated.” for “evaluated. The discrepancy between the in vitro anti-cancer drug sensitivity and the in vivo anti-cancer drug sensitivity was confirmed.”
(§4) Each pre-existing human pancreatic cancer cell line was subcutaneously transplanted at 1×10^6 cells to each of 4- to 10-week old female immunodeficient mice (NOD/Scid mice) to prepare a xenograft. The number of xenografts formed and the volume of each xenograft were measured over time. The volume was calculated according to (minor axis×minor axis×major axis/2) mm^3. The intraperitoneal administration of gemcitabine was started from the point in time when the volume of the xenograft formed exceeded 100 mm^3. The dose concentration of gemcitabine was set to 100 mg/kg, 0 mg/kg, 5 mg/kg, or 10 mg/kg, and gemcitabine was administered once every three days for 3 weeks. Then, the xenograft was resected.
(§5) The in vitro drug sensitivity of a pre-existing human pancreatic cancer cell line CFPAC-1, PANC-1, or SW1990 was evaluated. 10^−12 to 10^−3M GEM was added to the cells cultured for 24 hours, and IC50 was calculated from the number of cells surviving 72 hours after the addition.

SW1990 xenograft = experiment: as above; parameters: species or system NOD/Scid mice; details: 100 mg/kg intraperitoneal
Experimental: as §2, with “evaluated.” for “evaluated. The discrepancy between the in vitro anti-cancer drug sensitivity and the in vivo anti-cancer drug sensitivity was confirmed.”
as §4, §5

CFPAC-1 xenograft = experiment: as above; parameters: species or system NOD/Scid mice; details: 100 mg/kg intraperitoneal
Experimental: as §2, with “evaluated.” for “evaluated. The discrepancy between the in vitro anti-cancer drug sensitivity and the in vivo anti-cancer drug sensitivity was confirmed.”
as §4, §5

[6] = system: human lung cancer cell line (A549 cells); experiment: In vitro drug sensitivity of human lung cancer cell line organoid (luciferase activity); assay type: cell-based
Experimental: FIG. 29 A lung cancer organoid prepared three-dimensionally using a human lung cancer cell line (A549 cells) expressing luciferase gene and EGFP, as well as HUVECs and hMSCs, and a three-dimensional aggregate composed of only pancreatic cancer cells were evaluated for their in vitro drug sensitivity. The left diagrams show a fluorescence phase-contrast microscope image of the lung cancer organoid. In the graph of the right diagram, the ordinate depicts the amount of luciferase activity of the lung cancer cells, and the abscissa depicts an anti-cancer drug (gemcitabine) concentration in the medium. […] A pre-existing human lung cancer cell line (A549) was introduced from ATCC. In the present study, this cell line was introduced and then used at a passage number of 10 or less in experiments. The pre-existing human lung cancer cell line was transfected with luciferase gene in advance. The human lung cancer cell line, HUVECs, and hMSCs were inoculated onto a three-dimensional culture vessel ([…] plate from Kuraray Co., Ltd.) to reconstitute a human lung cancer cell line organoid. The human lung cancer cell line was inoculated at 3×10^3 cells on each well of a 96-well plate which was also inoculated with arbitrary numbers of HUVECs and hMSCs to reconstitute a cancer organoid. The mixing ratio of the cancer cells, HUVECs, and hMSCs was set to 10:0:0, 10:7:1 (Low hMSC), or 10:7:20 (High hMSC). A lung cancer organoid prepared three-dimensionally using a luciferase gene and EGFP expressing human lung cancer cell line (A549 cells), HUVECs, and hMSCs, and a three-dimensional aggregate composed of only pancreatic cancer cells were evaluated for their in vitro drug sensitivity. The left diagrams show a fluorescence phase-contrast microscope image of the lung cancer organoid. In the graph of the right diagram, the ordinate depicts the amount of luciferase activity of the lung cancer cells, and the abscissa depicts an anti-cancer drug (gemcitabine) concentration in a medium.

[7] = system: primary human pancreatic cancer cells; experiment: In vitro gemcitabine sensitivity of primary human pancreatic cancer organoid (luciferase); assay type: cell-based; details: primary pancreatic cancer organoid versus pancreatic cancer cyst; 72 hours
Experimental: Pancreatic cancer cells transfected with luciferase gene were used for experiments. […] The three-dimensional coculture method abides by the method for a pancreatic cancer organoid from a pancreatic cancer cell line. […] Luciferase gene-transfected primary human pancreatic cancer cells were established, and a primary pancreatic cancer organoid (pancreatic cancer cells: 2×10^4 cells) was reconstituted in vitro and then cultured for 72 hours in the presence of gemcitabine. Then, a luminescent substrate was added thereto, and the luminescence intensity of each organoid was measured using a luminescence plate reader and analyzed.

[8] = system: pre-existing human pancreatic cancer cell line (CFPAC-1) organoid-derived xenograft; experiment: Drug sensitivity of human pancreatic cancer organoid-derived xenograft (tumor volume); assay type: in vivo, NOD/Scid mice; details: for xenograft regression: e.g. 10 mg/kg
Experimental: After transplantation of the human pancreatic cancer cells or the human pancreatic cancer cell organoid to immunodeficient mice (NOD/Scid), gemcitabine was administered thereto at 3-day intervals from the point in time when the tumor size exceeded 100 mm3. […] A xenograft was prepared by the subcutaneous transplantation of a human pancreatic cancer cell organoid. Then, the intraperitoneal administration of gemcitabine was started from the point in time when the volume of the xenograft exceeded 100 mm^3. The dose concentration of gemcitabine was set to 0 mg/kg, 5 mg/kg, or 10 mg/kg, and the administration frequency and period were set to once every three days for 3 weeks. The volume of the xenograft was measured at appropriate times. […] The in vivo drug sensitivity of a xenograft reconstituted after transplantation of each organoid was evaluated using a typical pancreatic cancer therapeutic Gemzar (gemcitabine: GEM). A pre-existing human pancreatic cancer cell line organoid prepared by the three-dimensional coculture of a pre-existing human pancreatic cancer cell line, HUVECs, and hMSCs was subcutaneously transplanted to NOD/Scid mice. Then, the administration of GEM (e.g., 10 mg/kg) was started from the point in time when the tumor volume exceeded 100 mm^3. A non-GEM-administration group (0 mg/kg) given only physiological saline was set as a control group. GEM was administered once every three days for 30 days with reference made to a treatment regimen for human pancreatic cancer. A xenograft was recovered at GEM administration day 30 and analyzed histologically.

[9] = system: pancreatic cancer organoid-derived xenograft; experiment: Immunostaining of residual xenograft tissue after gemcitabine administration; assay type: in vivo, immunodeficient mice
Experimental: A paraffin section was deparaffinized, then dipped in a citrate buffer, and activated at 121° C. for 20 minutes. After washing with PBS containing 0.05% Tween 20 (PBST) for 5 minutes three times, a buffer for blocking (Dako Japan Co., Ltd.) was added to the section, and blocking reaction was performed at room temperature for 1 hour. Next, a primary antibody solution was added thereto and reacted overnight at 4° C. After the primary antibody (anti-EpCAM antibody, anti-αSMA antibody, anti-cytokeratin 7 (CK7) antibody, anti-CD31 antibody, or anti-laminin antibody) reaction, the section was washed with PBST for 5 minutes three times. A secondary antibody solution diluted with a buffer solution was added thereto and reacted at room temperature for 1 hour in the dark. After the secondary antibody reaction, the section was washed with PBST for 5 minutes three times and mounted on a glass slide using a mounting agent containing a DAPI staining solution (Wako Pure Chemical Industries, Ltd.). A pre-existing human pancreatic cancer cell line was transplanted at 2×10^5 cells to immunodeficient mice. After a xenograft reached 100 mm^3, gemcitabine was administered thereto once every three days. […] A pancreatic cancer cell line was transplanted to immunodeficient mice. Then, gemcitabine administration was started from the point in time when a xenograft reached 100 mm^3. […]

[10] = pancreatic cancer organoid (with HUVECs and hMSCs)
[11] = two-dimensionally cultured pancreatic cancer cells

drug sensitivity (luciferase activity) [3]: resistance
Structure (SMILES): Nc1ccn([C@@H]2O[C@H](CO)[C@@H](O)C2(F)F)c(=O)n1 [gemcitabine]
tumor size after discontinuation of administration ([1]; pancreatic cancer organoid transplantation group): increased markedly | tumor size after discontinuation of administration ([1]; suspension transplantation group): constant tumor size | drug sensitivity (luciferase activity) [2, 10]: lower drug sensitivity | drug sensitivity (luciferase activity) [2, 11]: high sensitivity | IC50 (SW1990): 200 nM | IC50 (CFPAC-1): 30 nM | IC50 (PANC-1): 700 nM | residual cancer stem cells in organoid [4]: GFP-positive and Sox9-positive cancer stem cells are confirmed to remain | drug resistance (tumor size) [5]: significantly high drug resistance | tumor regression (PANC-1 xenograft): tumor regression was found | tumor regression (SW1990 xenograft): no tumor regression was found | tumor regression (CFPAC-1 xenograft): tumor regression was found | drug sensitivity (luciferase activity) ([6]; High stroma group (hMSCs and HUVECs with high incidence)): even lower sensitivity | drug sensitivity (luciferase activity) ([6]; lung cancer cell aggregate): high sensitivity | drug sensitivity (luciferase activity) ([6]; organoid culture groups): lower drug sensitivity | drug resistance (luminescence intensity) [7]: significantly high drug resistance | increase in xenograft volume ([8]; all transplantation groups, e.g. 10 mg/kg once every three days for 30 days, versus non-GEM group): suppressed | xenograft regression ([8]; organoid with hMSCs in a large number (High hMSC)): exhibited no regression and increased in volume | xenograft regression ([8]; organoids of the other groups): exhibited regression | ABCG2-expressing pancreatic cancer cells after administration ([9]; cancer organoid transplantation group, administration day 30): Pancreatic cancer cells expressing ABCG2 are confirmed to remain | Ki67-positive cells after administration ([9]; organoid-derived xenograft, 1 month after start of administration once every three days): high incidence of Ki67-positive cells

Structure (SMILES): O=c1[nH]cc(F)c(=O)[nH]1 [5-FU]
drug sensitivity (luciferase activity) [2, 10]: lower drug sensitivity | drug sensitivity (luciferase activity) [2, 11]: high sensitivity
